From patent US10463644B2, “Uses of sesquiterpene lactone compounds and their derivatives in drugs preparation” (ACCENDATECH, priority 2013, dated 2019)
Where two headings read alike, the source gives them in different places.

Key:
[1] = test system: cancer cells; experiment: Survival rate of cancer cells after test compound is added (flow cytometry, Annexin V-FITC/PI, clinical specimen); assay type: cell-based, patient; conditions: Homo sapiens, 18 h, read-out: Survival rate (%) All cells (Stem cells and ordinary cells)
Method in brief: (§1)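 Patient tumour or leukaemia cells, identified by cancer-specific stem-cell markers (CD34+/CD38+ for AML), are treated with compound for 18 hours in serum-free IMDM. Apoptosis is then measured as Annexin V-FITC/PI staining by flow cytometry.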

[2] = test system: PGE2 secreted by synoviocyte; experiment: Content of PGE2 in culture supernatant of synoviocyte of RA model rats given test compound; assay type: in vivo; conditions: rat RA model, dose 30 mg/kg.2d; normal control 8.34 ± 1.29, NaCl 32.44 ± 10.32
Method in brief: (§2)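 Animals with induced RA are grouped and dosed with compound (30 mg/kg.2d) alongside NaCl and normal controls. Synoviocytes are prepared and cultured, and supernatants are harvested. TNF-α and PGE2 secretion are then quantified by one procedure, IL-1β by another.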

[3] = test system: normal cells; experiment: Survival rate of normal cells after test compound is added (flow cytometry, Annexin V-FITC/PI); assay type: cell-based; conditions: 18 h
Method in brief: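 Steps: density-gradient isolation of mononuclear cells from fresh or cryopreserved clinical samples; 18-hour compound exposure at 1×10^6 cells/mL; staining for stem-cell surface markers, then Annexin V-FITC and PI; flow cytometric apoptosis analysis.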

[4] = test system: IL-1β secreted by synoviocyte; experiment: Content of IL-1β in culture supernatant of synoviocyte of RA model rats given test compound; assay type: in vivo; conditions: rat RA model, dose 30 mg/kg.2d; normal control 0.16 ± 0.034, NaCl 0.49 ± 0.136
Method in brief: as §2

[5] = test system: cancer stem cells; experiment: Survival rate of cancer stem cells after test compound is added (flow cytometry, Annexin V-FITC/PI, clinical specimen); assay type: cell-based, patient; conditions: Homo sapiens, 18 h
Method in brief: as §1

[6] = Head and neck squamous cell carcinomas
[7] = read-out: Survival rate (%) All cells (Stem cells and ordinary cells)
[8] = read-out: Survival rate (%) Stem cells

CN(C)C[C@@H]1C(=O)O[C@H]2[C@H]1CCC1(CC1)[C@@H]1CCC3(CC3)[C@H]21 [Compound 27]
viability at 10 µM ([1]; AML): 90% | viability at 20 µM ([1]; AML): 86% | viability at 10 µM ([1]; Brain glioma): 91% | viability at 20 µM ([1]; Brain glioma): 88% | viability at 10 µM ([1]; Brain tumor): 94% | viability at 20 µM ([1]; Brain tumor): 87% | viability at 10 µM ([1]; Breast cancer): 88% | viability at 20 µM ([1]; Breast cancer): 85% | viability at 10 µM ([1]; CLL): 93% | viability at 20 µM ([1]; CLL): 88% | viability at 10 µM ([1]; CML): 94% | viability at 20 µM ([1]; CML): 87% | viability at 10 µM ([1]; Children hepatoblastoma): 88% | viability at 20 µM ([1]; Children hepatoblastoma): 87% | viability at 10 µM ([1]; Colon adenocarcinoma): 89% | viability at 20 µM ([1]; Colon adenocarcinoma): 87% | viability at 10 µM ([1]; Colorectal cancer): 93% | viability at 20 µM ([1]; Colorectal cancer): 86% | viability at 10 µM ([1]; Gastric cancer): 87% | viability at 20 µM ([1]; Gastric cancer): 83% | viability at 10 µM ([1]; Gastrointestinal tumor): 90% | viability at 20 µM ([1]; Gastrointestinal tumor): 86% | viability at 10 µM ([1]; Glioma): 88% | viability at 20 µM ([1]; Glioma): 82% | viability at 10 µM [1, 6]: 87% | viability at 20 µM [1, 6]: 83% | viability at 10 µM ([1]; Laryngeal cancer): 92% | viability at 20 µM ([1]; Laryngeal cancer): 89% | viability at 10 µM ([1]; Liver cancer): 90% | viability at 20 µM ([1]; Liver cancer): 86% | viability at 10 µM ([1]; Lung adenocarcinoma): 89% | viability at 20 µM ([1]; Lung adenocarcinoma): 86% | viability at 10 µM ([1]; Lung cancer): 88% | viability at 20 µM ([1]; Lung cancer): 81% | viability at 10 µM ([1]; Malignant melanoma): 91% | viability at 20 µM ([1]; Malignant melanoma): 85% | viability at 10 µM ([1]; Nasopharynx cancer): 91% | viability at 20 µM ([1]; Nasopharynx cancer): 85% | viability at 10 µM ([1]; Ovarian cancer): 88% | viability at 20 µM ([1]; Ovarian cancer): 84% | viability at 10 µM ([1]; Pancreatic cancer): 93% | viability at 20 µM ([1]; Pancreatic cancer): 92% | viability at 10 µM ([1]; Prostate cancer): 91% | viability at 20 µM ([1]; Prostate cancer): 88% | viability at 10 µM ([1]; Retinoblastoma): 94% | viability at 20 µM ([1]; Retinoblastoma): 86% | viability at 10 µM ([1]; Skin cancer): 94% | viability at 20 µM ([1]; Skin cancer): 81% | Content of PGE2 in culture supernatant of synoviocyte (x ± s) [2]: 24.75 ± 2.66 ng/mL | viability at 10 µM [3, 7]: 91% | viability at 10 µM [3, 8]: 88% | viability at 20 µM [3, 7]: 89% | viability at 20 µM [3, 8]: 81% | Content of IL-1β in culture supernatant of synoviocyte (x ± s) [4]: 0.41 ± 0.047 ng/mL | viability at 10 µM ([5]; AML): 87% | viability at 20 µM ([5]; AML): 77% | viability at 10 µM ([5]; Brain glioma): 84% | viability at 20 µM ([5]; Brain glioma): 78% | viability at 10 µM ([5]; Brain tumor): 87% | viability at 20 µM ([5]; Brain tumor): 76% | viability at 10 µM ([5]; Breast cancer): 84% | viability at 20 µM ([5]; Breast cancer): 76% | viability at 10 µM ([5]; CLL): 87% | viability at 20 µM ([5]; CLL): 82% | viability at 10 µM ([5]; CML): 87% | viability at 20 µM ([5]; CML): 76% | viability at 10 µM ([5]; Children hepatoblastoma): 82% | viability at 20 µM ([5]; Children hepatoblastoma): 79% | viability at 10 µM ([5]; Colon adenocarcinoma): 82% | viability at 20 µM ([5]; Colon adenocarcinoma): 78% | viability at 10 µM ([5]; Colorectal cancer): 85% | viability at 20 µM ([5]; Colorectal cancer): 79% | viability at 10 µM ([5]; Gastric cancer): 81% | viability at 20 µM ([5]; Gastric cancer): 75% | viability at 10 µM ([5]; Gastrointestinal tumor): 86% | viability at 20 µM ([5]; Gastrointestinal tumor): 77% | viability at 10 µM ([5]; Glioma): 80% | viability at 20 µM ([5]; Glioma): 75% | viability at 10 µM [5, 6]: 81% | viability at 20 µM [5, 6]: 75% | viability at 10 µM ([5]; Laryngeal cancer): 85% | viability at 20 µM ([5]; Laryngeal cancer): 77% | viability at 10 µM ([5]; Liver cancer): 86% | viability at 20 µM ([5]; Liver cancer): 77% | viability at 10 µM ([5]; Lung adenocarcinoma): 82% | viability at 20 µM ([5]; Lung adenocarcinoma): 76% | viability at 10 µM ([5]; Lung cancer): 79% | viability at 20 µM ([5]; Lung cancer): 72% | viability at 10 µM ([5]; Malignant melanoma): 82% | viability at 20 µM ([5]; Malignant melanoma): 74% | viability at 10 µM ([5]; Nasopharynx cancer): 82% | viability at 20 µM ([5]; Nasopharynx cancer): 74% | viability at 10 µM ([5]; Ovarian cancer): 83% | viability at 20 µM ([5]; Ovarian cancer): 77% | viability at 10 µM ([5]; Pancreatic cancer): 86% | viability at 20 µM ([5]; Pancreatic cancer): 78% | viability at 10 µM ([5]; Prostate cancer): 84% | viability at 20 µM ([5]; Prostate cancer): 78% | viability at 10 µM ([5]; Retinoblastoma): 85% | viability at 20 µM ([5]; Retinoblastoma): 80% | viability at 10 µM ([5]; Skin cancer): 85% | viability at 20 µM ([5]; Skin cancer): 74%
